Experimental data: patent publication US7115600B2, “Histamine-3 receptor modulators” (Pfizer Inc., priority 2004, dated 2006)

Target: T1, rat histamine H3 receptors (Rattus norvegicus, UniProt Q9QYN8)
T1 construct: Frozen rat frontal brain or frozen human post-mortem frontal brain is homogenized; from tissue; host or cells: rat frontal brain membranes
Test: Rat Histamine H3 Receptor Binding
Conditions: frozen rat frontal brain membranes; radioligand 1 nM 3H-N-methyl-histamine; 1 hour incubation; read-out: rH3 Ki
Experimental: The in vitro affinity of the compounds in the present invention at the rat or human histamine H3 receptors can be determined according to the following procedure. Frozen rat frontal brain or frozen human post-mortem frontal brain is homogenized in 20 volumes of cold 50 mM Tris HCl containing 2 mM MgCl2 (pH to 7.4 at 4 degrees C.). The homogenate is then centrifuged at 45,000 G for 10 minutes. The supernatant is decanted and the membrane pellet resuspended by Polytron in cold 50 mM Tris HCl containing 2 mM MgCl2 (pH to 7.4 at 4 degrees C.) and centrifuged again. The final pellet is resuspended in 50 mM Tris HCl containing 2 mM MgCl2 (pH to 7.4 at 25 degrees C.) at a concentration of 12 mg/mL. Dilutions of compounds are made in 10% DMSO/50 mM Tris buffer (pH 7.4) (at 10× final concentration, so that the final DMSO concentration is 1%). Incubations are initiated by the addition of membranes (200 microliters) to 96 well V-bottom polypropylene plates containing 25 microliters of drug dilutions and 25 microliters of radioligand (1 nM final concentration 3H—N-methyl-histamine). After a 1 hour incubation, assay samples are rapidly filtered through Whatman GF/B filters and rinsed with ice-cold 50 nM Tris buffer (pH 7.4) using a Skatron cell harvester. Radioactivity is quantified using a BetaPlate scintillation counter. The percent inhibition of specific binding can then be calculated.

T1 sequence (Q9QYN8 whole entry): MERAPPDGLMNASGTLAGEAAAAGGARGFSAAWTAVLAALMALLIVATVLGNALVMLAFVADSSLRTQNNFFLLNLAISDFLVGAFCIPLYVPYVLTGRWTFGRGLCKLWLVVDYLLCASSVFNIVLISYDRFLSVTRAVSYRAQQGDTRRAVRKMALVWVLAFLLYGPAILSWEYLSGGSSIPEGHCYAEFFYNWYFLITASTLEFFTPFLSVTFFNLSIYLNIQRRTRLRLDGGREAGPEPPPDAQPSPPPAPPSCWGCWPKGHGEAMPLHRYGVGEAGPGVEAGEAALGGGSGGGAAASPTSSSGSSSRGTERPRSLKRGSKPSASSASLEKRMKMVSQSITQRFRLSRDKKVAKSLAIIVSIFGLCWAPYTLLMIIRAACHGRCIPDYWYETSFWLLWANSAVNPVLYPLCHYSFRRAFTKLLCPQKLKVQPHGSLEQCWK

Going from `Cc1nnc(OC[C@H]2C[C@@H](c3ccc(CN4CCCC4)cc3)C2)c2ccccc12` [Example 78, cis-1-Methyl-4-[3-(4-pyrrolidin-1-ylmethyl-phenyl)-cyclobutylmethoxy]-phthalazine] to `COc1ccc(OCC2CC(c3ccc(CN4CCCC4)cc3)C2)nn1` (centres unmarked) [Example 44, 3-Methoxy-6-[3-(4-pyrrolidin-1-ylmethyl-phenyl)-cyclobutylmethoxy]-pyridazine], the Ki falls from 110 nM to 44.4 nM (2.5-fold).

Compared with `Cc1ccc(C)n1-c1ccc(OC[C@H]2C[C@@H](c3ccc(CN4CCCC4)cc3)C2)nn1` [Example 90, cis-3-(2,5-Dimethyl-pyrrol-1-yl)-6-{[3-(4-pyrrolidin-1-ylmethyl-phenyl)-cyclobutylmethyl]oxy}-pyridazine], `Cc1ccc(COCC2CC(c3ccc(CN4CCCC4)cc3)C2)cc1` (centres unmarked) [Example 27, 1-{4-[3-(4-Methyl-benzyloxymethyl)-cyclobutyl]-benzyl}-pyrrolidine] is 2.2-fold higher in Ki: 33.6 nM for the first, 74.2 nM for the second.

First: Fc1cnc(N2CCN(C[C@H]3C[C@@H](c4ccc(CN5CCCC5)cc4)C3)CC2)nc1 [Example 102, cis-5-Fluoro-2-{4-[3-(4-pyrrolidin-1-ylmethyl-phenyl)-cyclobutylmethyl]-piperazin-1-yl}-pyrimidine]
Second: Fc1cnc(N2CCN(C[C@H]3C[C@H](c4ccc(CN5CCCC5)cc4)C3)CC2)nc1 [Example 112, trans-5-Fluoro-2-{4-[3-(4-pyrrolidin-1-ylmethyl-phenyl)-cyclobutylmethyl]-piperazin-1-yl}-pyrimidine]
The Ki of the first is 2.4-fold higher: 1.83 nM for the first, 0.77 nM for the second. The second binds more tightly here.

`c1ccc(COCC2CC(c3ccc(CN4CCCC4)cc3)C2)cc1` (centres unmarked) [Example 2, 1-[4-(3-Benzyloxymethyl-cyclobutyl)-benzyl]-pyrrolidine] and `N#Cc1cccc(COCC2CC(c3ccc(CN4CCCC4)cc3)C2)c1` (centres unmarked) [Example 5, 3-[3-(4-Pyrrolidin-1-ylmethyl-phenyl)-cyclobutylmethoxymethyl]-benzonitrile] are within 1.5-fold of each other in Ki: 98.8 nM for the first, 89.2 nM for the second.

First: COC[C@@H]1CCCN1C[C@H]1C[C@H](c2ccc(CN3CCCC3)cc2)C1 [Example 128, trans-(S)-2-Methoxymethyl-1-[3-(4-pyrrolidin-1-ylmethyl-phenyl)-cyclobutylmethyl]-pyrrolidine]
Second: CC1CCCN1C[C@H]1C[C@H](c2ccc(CN3CCCC3)cc2)C1 (relative stereo) [Example 120, trans-2-Methyl-1-[3-(4-pyrrolidin-1-ylmethyl-phenyl)-cyclobutylmethyl]-pyrrolidine]
The Ki of the first is 2.7-fold higher: 8.91 nM for the first, 3.35 nM for the second. The second binds more tightly here.

First: CC1CCN(C[C@H]2C[C@H](c3ccc(CN4CCCC4)cc3)C2)CC1 [Example 119, trans-4-Methyl-1-[3-(4-pyrrolidin-1-ylmethyl-phenyl)-cyclobutylmethyl]-piperidine]
Second: CC1CCCN(C[C@H]2C[C@H](c3ccc(CN4CCCC4)cc3)C2)C1 (relative stereo) [Example 118, trans-3-Methyl-1-[3-(4-pyrrolidin-1-ylmethyl-phenyl)-cyclobutylmethyl]-piperidine]
The Ki of the first is 2.1-fold higher: 1.34 nM for the first, 0.65 nM for the second.

First: Cc1cc(C2CCNCC2)nc(OC[C@H]2C[C@@H](c3ccc(CN4CCCC4)cc3)C2)n1 [Example 77, cis-4-Methyl-6-piperidin-4-yl-2-[3-(4-pyrrolidin-1-ylmethyl-phenyl)-cyclobutylmethoxy]-pyrimidine]
Second: Cc1cnc(OC[C@H]2C[C@@H](c3ccc(CN4CCCC4)cc3)C2)nc1C1CCNC1 (relative stereo) [Example 88, cis-5-Methyl-4-pyrrolidin-3-yl-2-[3-(4-pyrrolidin-1-ylmethyl-phenyl)-cyclobutylmethoxy]-pyrimidine]
The Ki of the first is 11-fold higher: 42.5 nM for the first, 3.79 nM for the second. The second binds more tightly here.

First: N#Cc1ccc(COCC2CC(c3ccc(CN4CCCC4)cc3)C2)cc1 (centres unmarked) [Example 7, 4-[3-(4-Pyrrolidin-1-ylmethyl-phenyl)-cyclobutylmethoxymethyl]-benzonitrile]
Second: Cc1ccc(S(=O)(=O)OC[C@H]2C[C@@H](c3ccc(CN4CCCC4)cc3)C2)cc1 [Example 47, cis-Toluene-4-sulfonic acid 3-(4-pyrrolidin-1-ylmethyl-phenyl)-cyclobutylmethyl ester]
The Ki of the first is 4.3-fold higher: 99.2 nM for the first, 23.2 nM for the second. The second binds more tightly here.

`c1cc([C@H]2C[C@@H](CN3CCCCC3)C2)ccc1CN1CCCC1` [Example 104, cis-1-[3-(4-Pyrrolidin-1-ylmethyl-phenyl)-cyclobutylmethyl]-piperidine] and `c1cc([C@H]2C[C@@H](CN3CCCC3)C2)ccc1CN1CCCC1` [Example 103, cis-1-[3-(4-Pyrrolidin-1-ylmethyl-phenyl)-cyclobutylmethyl]-pyrrolidine] are within 1.5-fold of each other in Ki: 2.78 nM for the first, 3.93 nM for the second.

First: CC1CC(C)CN(C[C@H]2C[C@H](c3ccc(CN4CCCC4)cc3)C2)C1 (stereo partly drawn) [Example 114, trans-3,5-Dimethyl-1-[3-(4-pyrrolidin-1-ylmethyl-phenyl)-cyclobutylmethyl]-piperidine]
Second: C[C@@H]1CN(C[C@H]2C[C@@H](c3ccc(CN4CCCC4)cc3)C2)C[C@H](C)O1 [Example 106, cis-(2R,6S)-2,6-Dimethyl-4-[3-(4-pyrrolidin-1-ylmethyl-phenyl)-cyclobutylmethyl]-morpholine]
The Ki of the first is 17-fold lower: 0.48 nM for the first, 8.35 nM for the second. The first binds more tightly here.

Compared with `c1cc([C@H]2C[C@@H](CN3CCNCC3)C2)ccc1CN1CCCC1` [Example 101, cis-1-[3-(4-Pyrrolidin-1-ylmethyl-phenyl)-cyclobutylmethyl]-piperazine], `c1cc([C@H]2C[C@H](CN3CCCC3)C2)ccc1CN1CCCC1` [Example 107, trans-1-[3-(4-Pyrrolidin-1-ylmethyl-phenyl)-cyclobutylmethyl]-pyrrolidine] is 2.3-fold lower in Ki: 4.81 nM for the first, 2.09 nM for the second. The second binds more tightly here.

Going from `c1cc(C2CCNC2)nc(OC[C@H]2C[C@@H](c3ccc(CN4CCCC4)cc3)C2)n1` (relative stereo) [Example 65, cis-4-Pyrrolidin-3-yl-2-[3-(4-pyrrolidin-1-ylmethyl-phenyl)-cyclobutylmethoxy]-pyrimidine] to `c1cnc(OCC2CC(c3ccc(CN4CCCC4)cc3)C2)cn1` (centres unmarked) [Example 40, 2-[3-(4-Pyrrolidin-1-ylmethyl-phenyl)-cyclobutylmethoxy]-pyrazine], the Ki rises from 7.28 nM to 74.3 nM (10-fold). The first binds more tightly here.

Going from `CC1CCCC(C)N1C[C@H]1C[C@H](c2ccc(CN3CCCC3)cc2)C1` (stereo partly drawn) [Example 121, trans-2,6-Dimethyl-1-[3-(4-pyrrolidin-1-ylmethyl-phenyl)-cyclobutylmethyl]-piperidine] to `C[C@@H]1CC[C@@H](C)N1C[C@H]1C[C@H](c2ccc(CN3CCCC3)cc2)C1` [Example 123, trans-(2R,5R)-2,5-Dimethyl-1-[3-(4-pyrrolidin-1-ylmethyl-phenyl)-cyclobutylmethyl]-pyrrolidine], the Ki rises from 2.81 nM to 6.84 nM (2.4-fold). The first binds more tightly here.

First: OC1(c2ccc(CN3CCCC3)cc2)CC(COCc2ccccc2)C1 (centres unmarked) [Example 1, 3-Benzyloxymethyl-1-(4-pyrrolidin-1-ylmethyl-phenyl)-cyclobutanol]
Second: c1ccc(C2CCCN2C[C@H]2C[C@H](c3ccc(CN4CCCC4)cc3)C2)nc1 (relative stereo) [Example 109, trans-2-{1-[3-(4-Pyrrolidin-1-ylmethyl-phenyl)-cyclobutylmethyl]-pyrrolidin-2-yl}-pyridine]
The Ki of the first is 3.3-fold higher: 8.34 nM for the first, 2.55 nM for the second.

Molecule `COc1ccc(-c2cnc(OC[C@H]3C[C@@H](c4ccc(CN5CCCC5)cc4)C3)nc2)cc1` [Example 92, cis-5-(4-Methoxy-phenyl)-2-[3-(4-pyrrolidin-1-ylmethyl-phenyl)-cyclobutylmethoxy]-pyrimidine] has a Ki of 118 nM.
